Structures are written as SMILES.

This experiment addresses Bromodomain-containing protein 4 (Homo sapiens, UniProt O60885). Description: Inhibitory Activity Assay of BRD4 Small Molecule Compounds: AlphaScreen kit (Perkin Elmer) was used to detect effect of the compounds on binding of BRD4 bromodomain to acetylated histone H4 polypeptide. […] Each of fusion proteins containing (His)6tag can be recognized and bound by Ni2+. […] The donor microbeads were coated with streptavidin and can bind to biotinylated acetylated H4 polypeptide. The acceptor microbeads were coated with Ni2+ ions and can bind to the BD1 protein with (His)6tag. When the BD1 protein recognized the acetylated H4 polypeptide, the donor microbeads and the acceptor microbeads can be brought closer to a certain distance. Within this range, the donor microbeads can produce singlet oxygen after being irradiated with a 680 nm excitation light, and transfer the singlet oxygen to the acceptor microbeads. After a series of cascade chemical reactions, the acceptor microbeads will generate an emission wave of 520-620 nm, which in turn can be detected a signal. In this experiment, the test system was 20 μL, and the compound needs to be diluted in buffer 1 (20 mM HEPES pH 7.4, 150 mM NaCl, 1 mM dithiothreitol). First, a solution of 20 mM compound was consecutively diluted twice, each in 10 times, totally in 100 times to a concentration of 200 μM. […] The recombinant BD1 protein solution and the acetylated histone H4 polypeptide were diluted in the buffer 2 (20 mM HEPES pH 7.4, 150 mM NaCl, 0.01% Triton X-100, 0.1% bovine serum protein (w/v, Sigma), 1 mM dithiothreitol) to 100 nM and 100 nM respectively, to obtain a 8×BD1 protein working solution and a 4× acetylated histone H4 polypeptide working solution. The donor microbeads and the acceptor microbeads are diluted together in the buffer 2, both in the ratio of 1:100, to obtain a 2× microbead mixed working solution. The plate was added with 2.5 μL of BD1 protein working solution and incubated with the compound for 20 min at room temperature, and then added with 5 μL of acetylated histone H4 polypeptide working solution and incubated at room temperature for 5 min, and finally added with 10 μL of microbead mixed working solution and incubated at room temperature for 60 min. […] IC50 values of the compounds at different concentrations for inhibiting the binding of BD1 protein to acetylated H4 polypeptide were calculated by fitting using GraphPad Prism 5.0 software.

A word on the IC50: it is the concentration needed to halve the response being measured. In the case of `CCS(=O)(=O)c1ccc(Oc2ccccc2C)c(-c2cc(C)c3c(=O)[nH]ccn23)c1`, the concentration for half-maximal inhibition (IC50) is 131 nM.

Regarding `Cc1cc(-c2cc(S(C)(=O)=O)ccc2Oc2ccccc2)n2cc[nH]c(=O)c12`, the IC50 is 134 nM. For the compound `Cc1ccccc1Oc1ccc(NS(C)(=O)=O)cc1-c1cc(C)c2c(=O)[nH]ccn12`, the half-maximal inhibitory concentration (IC50) is 119 nM.

With `Cc1cc(-c2cc(NS(C)(=O)=O)ccc2Oc2ccccc2)n2c1C(=O)NCC2`, the IC50 is 76.9 nM. In the case of `Cc1cc(-c2cc(CS(C)(=O)=O)ccc2Nc2ccc(F)cc2F)n2cc[nH]c(=O)c12`, the IC50 was 161 nM. The value for `Cc1cc(-c2cc(NS(C)(=O)=O)ccc2Oc2ccccc2)n2nc[nH]c(=O)c12` was 434 nM; that for `Cc1cc(-c2cc(NS(C)(=O)=O)ccc2OC2CCOCC2)n2cn[nH]c(=O)c12` was 124 nM. Turning to `Cc1cc(-c2cc(CS(C)(=O)=O)ccc2Nc2ccccc2)n2cc[nH]c(=O)c12`, the IC50 was 138 nM. The value for `Cc1cc(-c2cc(S(C)(=O)=O)ccc2Oc2ccc(F)cc2F)n2cc[nH]c(=O)c12` was 132 nM. Then `Cc1cc(-c2cc(CS(C)(=O)=O)ccc2Oc2ccc(F)cc2F)n2cn[nH]c(=O)c12`, with 4.5 nM.

For `Cc1cc(-c2cc(NS(C)(=O)=O)ccc2Oc2ccccc2)n2cn[nH]c(=O)c12`, the IC50 is 114 nM. For the compound `Cc1cc(-c2cc(NS(C)(=O)=O)ccc2Oc2ccc(F)cc2F)n2cn[nH]c(=O)c12`, the IC50 was 92.6 nM. The value for `Cc1cc(-c2ccccc2Oc2ccccc2)n2nc[nH]c(=O)c12` was 910 nM; that for `Cc1cc(-c2ccccc2Oc2ccccc2)n2cc[nH]c(=O)c12` was 905 nM; that for `Cc1cc(-c2cc(NS(C)(=O)=O)ccc2OCC2CC2)n2cn[nH]c(=O)c12` was 471 nM.
